Tests used:
Assay type in all cases: cell-based
[1] = tested on: Plasmodium falciparum strain F32 (Tanzania); test: inhibition of reinvasion of human red cells by blood stream forms of the malaria parasite; settings: result in words, read from Figure 1
Experimental: The blood stream forms of the malaria parasite Plasmodium falciparum, primarily late trophozoites and early schizonts, were assayed by recording the inhibition of the reinvasion of human red cells by the method of Wahlin, B., et al, (1984) Proc. Natl. Acad. Sci. USA 81, 7912-16. Quadruplicate microcultures of strain F32 (Tanzania) were incubated for 20 hrs at 37°C in a complete tissue culture medium, with or without different concentrations of the peptides to be assayed. After acridine orange staining, the percentage of newly infected red cells was scored in a fluorescence microscope. For each culture 40,000 red cells were analysed for parasitic infection. Duplicate assays were run for CA(1-13)M(1-13).

Sheep Red Cells = test: lysis of sheep red blood cells (lysis assay or inhibition zone plate assay with SRC); settings: SRC = Sheep Red Cells; ? indicates turbid zone (melittin gives clear zone)
Experimental: These values were obtained by either the lysis assay normally used for melittin or by an adaptation of the antibacterial inhibition zone assay of the above-cited Hultmark et al. articles to plates with sheep red cells (SRC). With respect to the latter, sterile agarose plates contained 6 ml of medium with 1% agarose, 0.9% NaCl and 10% SRC suspended in Alsevers solution. A dilution series of peptide was applied in 3mm wells each loaded with 3 µl of the respective samples. The plates were incubated at 30°C for 24 h, the zones were recorded and LC values calculated as described in the Hultmark et al. articles. Clear zones were recorded after a few hours of incubation and the use of such data gave an LC value of the same order as readings after 24 h. This plate assay is faster and more convenient than the lysis assay normally used for melittin.

S. aureus Cowan I = settings: thin agarose plates, 30°C, * indicates flat concentration dependence
Experimental: (§1) The products of the invention were tested for activity against a variety of test organisms selected to represent a number of different types of pathogens some of them known to be particularly virulent by the inhibition zone assay of Hoffmann et al. (1981) Insect Biochem. 11 537-548. Thin agar or agarose plates (8.5 cm diameter) were prepared with 6 ml of rich medium containing 100 µg/ml of streptomycin and 2 x 10^5 viable cells of a test organism resistant to streptomycin. Wells of […] were punched in the plates and 3 µl of serially diluted samples were placed in the wells. The diameters of the zones of inhibition around the wells were measured after overnight incubation at 30° or 37°C. For each peptide the squares of the zone diameters were plotted against the logarithm of the concentration, and from the slopes and intercepts the lethal concentrations were calculated as described by Hultmark (1983) EMBO J. 2, 571-76 or Hultmark et al. (1982) Eur. J. Biochem. 127 207-217.
(§2) Novel peptides CA(1-8)M(1-18), CA(1-9)M(1-17), CB(1-13)M(1-13), CA(1-17)M(1-9), CA(1-18)M(1-8), M(1-13)CA(1-22) and M(1-13)CA(1-13) were prepared as described above (see Examples 1-6). These novel peptides and CA, CB, and M were tested for activity against a variety of organisms selected to represent a number of different types of pathogens, some of them known to be particularly virulent, by the inhibition zone assay of Hoffmann et al. (1981), Insect Biochem. 11 537-48. As in Examples 1-6, thin agarose plates were prepared with the respective organisms. The diameters of the zones of inhibition were measured after overnight incubation at 30°C. The lethal concentrations were determined as described above (see Examples 1-6; Hultmark et al. articles cited thereat).

E. coli D21 = settings: thin agarose plates, overnight incubation at 30°C
Experimental: as §1, §2

B. subtilis Bsll = settings: overnight incubation at 30°C
Experimental: as §1, §2

P. aeruginosa OT97 = settings: thin agarose plates, overnight incubation at 30°C
Experimental: as §1, §2

S. pyogenes = settings: thin agarose plates, overnight incubation at 30°C
Experimental: as §1, §2

H-KWKLFKKIEKVGQNIRDGIIKAGPAVAVVGQATQIAK-NH2 [CA(1-37), reference compound]
activity against Plasmodium falciparum (inhibition of reinvasion, Figure 1) [1]: only negligible activity
LETHAL CONCENTRATION SRC (Sheep Red Cells): >200 µM
LETHAL CONCENTRATION Staph (S. aureus Cowan I): >200 µM
LETHAL CONCENTRATION D21 (E. coli D21): 0.2 µM
LETHAL CONCENTRATION Bsll + ME (B. subtilis Bsll; B. subtilis, plates prepared with medium E): 200 µM
LETHAL CONCENTRATION Bsll (B. subtilis Bsll; Bsll = B. subtilis, thin agarose plates): 4 µM
LETHAL CONCENTRATION OT97 (P. aeruginosa OT97): 2 µM
LETHAL CONCENTRATION Strep (S. pyogenes): 4 µM
